# Where two headings read alike, the source gives them in different places. Marks after values point to notes of the source that are not given here.
# Tests used:
# [1] = set-up: ε × 10^−4: unit not given beside the values; conditions: cited from earlier work
# [2] = Spectral properties of the fluorinated rhodamines (absorption, emission, quantum yield, lifetime); format: physicochemical
# Description: Extinction coefficients (of the long wavelength maximum) which are lower than ca. 8×10^4 M^−1 cm^−1 indicate the presence of the closed non-fluorescent form.
# [3] = test system: living mammalian cells (PtK2); test: Membrane-permeation experiments in living cells, epifluorescence microscope; format: cell-based; conditions: for Structures stained in living cells: 15 minutes
# Procedure: FIG. 9. Membrane-permeation experiments of the presented dyes. Living mammalian cells (PtK2) were incubated for 15 minutes with a 50 μg dye/ml solution. The subcellular localization of the dye was imaged in an epifluorescence microscope. A: 46-H—CH2 CF3—H—H (16); B: 42-COOH (15); C: 23; D: 37-Me-Me-H (27); E: 42-H (14)-methylester; F: 33-H—H (18).
# The most important prerequisite for fluorophores used in these labeling strategies is that sufficient amounts of it need to pass cellular membrane(s) to reach the target protein. In order to asses the permeability of the cell membrane to the fluorescent dyes described in the presented invention, living mammalian cells (PtK2) previously grown overnight on cover slips, were first subjected to either 500 μg dye/ml or 50 μg dye/ml in growth medium for 15 minutes. (The amount of dye used for labeling of SNAP-fusion proteins is below 5 μg dye/ml.) Then, the cells were washed with growth medium (without dye) for 15 minutes, and imaged using an epifluorescence microscope.
# [4] = a + b (aqueous buffer at pH 7 + methanol)
# [5] = value for the closed form, methanol
# [6] = solvent not stated, spectra pH-dependent at pH < 5
# [7] = adding methanol to an aqueous buffer
Compound,ABSORPTION λMAX ([2]; aqueous buffer at pH 7),EMISSION λMAX ([2]; aqueous buffer at pH 7),ΦFL ([2]; aqueous buffer at pH 7),τFL ([2]; aqueous buffer at pH 7) [ns],ABSORPTION ε ([2]; methanol) [M⁻¹ cm⁻¹],ABSORPTION λMAX ([2]; methanol),EMISSION λMAX ([2]; methanol) [nm],Structures stained in living cells ([3]; 500 μg dye/ml),also measured
5(6)-carboxyfluorescein [Compound 7],,,,,,,,,"ε × 10^−4 ([1]; H2O, pH = 9): 7.8^4*; λem ([1]; H2O, pH = 9): 517^4* nm; λmax ([1]; H2O, pH = 9): 492^4* nm"
"5′ (6′)-Carboxy-2,7-difluoro-N,N′-dimethyl-N,N-bis(2,2,2-trifluoroethyl)rhodamine [Compound 26]",,,,,,,,Cellular stain visible; bright,"ABSORPTION λMAX [2, 4]: 523 nm; ABSORPTION λMAX [2, 5]: 291 nm"
"CN(CC(F)(F)F)c1cc2c(cc1F)C1(OC(=O)c3ccccc31)c1cc(F)c(N(C)CC(F)(F)F)cc1O2 [Compound 25, 2,7-Difluoro-N,N-dimethyl-N,N-bis(2,2,2-trifluoromethyl)-rhodamine]",,,,,,,,Only dim stain visible.,"fluorescence efficiency of the open acidic form ([2]; acidic solutions): relatively low fluorescence efficiency; ΦFL ([2]; measured at pH 1): (0.20)^1; τFL ([2]; measured at pH 1): (1.2)^1 ns; ABSORPTION ε ([2]; measured at pH 1, aqueous): (3.2)^1a (M^−1 cm^−1) × 10^−4; ABSORPTION λMAX ([2]; measured at pH 1, aqueous): 528 nm; EMISSION λMAX ([2]; measured at pH 1, aqueous): (557)^1a nm; colour of solutions ([2]; methanol, water and neutral buffers): colorless solutions; ABSORPTION λMAX [2, 5]: 300 nm"
5(6)-carboxyrhodamine 110 [Compound 2],,,,,,,,,ε × 10^−4 ([1]; MeOH): 7.8; λem ([1]; MeOH): 532 nm; λmax ([1]; MeOH): 504 nm
"O=C(O)c1ccc2c(c1)C1(OC2=O)c2ccc(NCC(F)(F)F)cc2Oc2cc(NCC(F)(F)F)ccc21 [15 (42-COOH), 5′-Carboxy-N,N′-bis(2,2,2-trifluoroethyl)rhodamine]",501 nm,525 nm,0.95,4.1,,500 nm,524,,"ABSORPTION ε ([2]; aqueous buffer at pH 7): 85000 M⁻¹ cm⁻¹; Structures stained in living cells ([3]; 50 μg dye/ml): Dim cytoplasmatic stain with dots; Structures stained in living cells ([3]; 500 μg dye/ml, listed as 42-COOH (15)): Bright cytoplasmatic stain visible."
O=C(O)CSc1c(F)c(F)c(C(=O)O)c(-c2c3cc(F)c(=O)cc-3oc3cc(O)c(F)cc23)c1F [Compound 9],,,,,,,,,"bathochromic shift ([1]; compared with compounds 7 and 8): ca. 10 nm; ε × 10^−4 [1, 6]: 8.6; λem [1, 6]: 526 nm; λmax [1, 6]: 506 nm"
"CN(C)c1cc2c(cc1F)C1(OC(=O)c3ccccc31)c1cc(F)c(N(C)C)cc1O2 [Compound 27, 2,7-Difluoro-N,N,N′,N′-tetramethylrhodamine]",554 nm,586 nm,0.02,3.3,,546 nm,576,Red cytoplasmatic and mitochondrial,"fluorescence in aqueous buffer ([2]; aqueous buffer): nearly non-fluorescent; ABSORPTION ε ([2]; aqueous buffer at pH 7): 50000 M⁻¹ cm⁻¹; fluorescence signal inside the living cells ([3]; compared with aqueous buffer, Example 12, FIG. 9D): considerably stronger"
O=C1OC2(c3cc(F)c(O)cc3Oc3cc(O)c(F)cc32)c2ccccc21 [Compound 8],,,,,,,,,"τ ([1]; 20° C.): ^7*τ = 4.1 ns (20° C.).; ε × 10^−4 ([1]; H2O, pH = 9): 8.5^4*; λem ([1]; H2O, pH = 9): 518^4* nm; λmax ([1]; H2O, pH = 9): 492^4* nm"
"O=C(O)c1ccc2c(c1)C1(OC2=O)c2ccc(NCC(F)(F)F)cc2Oc2cc(NCC(F)(F)F)ccc21 [15 (43-COOH), 6′-carboxy-N,N′-bis(2,2,2-trifluoroethyl)rhodamine]",501 nm,523 nm,0.93,,,497 nm,522,,"ABSORPTION ε ([2]; aqueous buffer at pH 7): 88000 M⁻¹ cm⁻¹; Structures stained in living cells ([3]; 500 μg dye/ml, listed as 43-COOH (15)): Nearly no stain visible."
Nc1cc2c(cc1Cl)C1(OC(=O)c3ccccc31)c1cc(Cl)c(N)cc1O2 [Compound 5],,,,,,,,,"shift of the absorption and emission curves to the red ([1]; compared with compounds 1, 3 and 4): ca. 10 nm; ε × 10^−4 ([1]; water, pH = 7): 7.1; λem ([1]; water, pH = 7): 525 nm; λmax ([1]; water, pH = 7): 502 nm"
"Cl.N=c1ccc2c(-c3ccccc3C(=O)O)c3ccc(N)cc3oc-2c1 [Compound 1, rhodamine 110]",,,,,,,,,"Φfl ([1]; basic EtOH): 0.92; λem ([1]; basic EtOH): 524 nm; ε × 10^−4 ([1]; water, pH = 7): 8.3; λem ([1]; water, pH = 7): 520** nm; λmax ([1]; water, pH = 7): 496 nm"

# Continued, in another order:
ABSORPTION λMAX ([2]; aqueous buffer at pH 7),EMISSION λMAX ([2]; aqueous buffer at pH 7),ΦFL ([2]; aqueous buffer at pH 7),τFL ([2]; aqueous buffer at pH 7) [ns],ABSORPTION ε ([2]; methanol) [M⁻¹ cm⁻¹],ABSORPTION λMAX ([2]; methanol),EMISSION λMAX ([2]; methanol) [nm],Compound,Structures stained in living cells ([3]; 500 μg dye/ml),also measured
494 nm,520 nm,0.87,3.9,41000,498 nm,522,"Nc1cc2c(cc1F)C1(OC(=O)c3ccccc31)c1cc(F)c(N)cc1O2 [Compound 10, 2,7-Difluororhodamine]",High background staining visible.,
496 nm,522 nm,0.89,3.8,,498 nm,520,"5′ (6′)-carboxy-2,7-difluoro-N,N′-bis(2,2,2-trifluoroethyl)-rhodamine [Compound 19]",,ABSORPTION ε ([2]; aqueous buffer at pH 7): 53000 M⁻¹ cm⁻¹; Structures stained in living cells ([3]; 50 μg dye/ml): Dim cellular stain with dots
499^a nm,522^ nm,0.88,3.9,,,,"N,N-Bis(2,2,2-trifluoroethyl)rhodamine [Compound 14]",Nearly no stain visible.,ABSORPTION ε ([2]; aqueous buffer at pH 7): 81000 M⁻¹ cm⁻¹
509 nm,533 nm,0.86,3.3,42000,517 nm,541,"5′,(6′)-Carboxy-2,7-difluoro-N,N″-bis(2,2,2-trifluoroethyl)-4,5-disulforhodamine [Compound 21]",Cytoplasmatic and mitochondrial,Structures stained in living cells ([3]; 50 μg dye/ml): Dim cytoplasmatic stain with dots
513 nm,539 nm,0.87,4.0,56000,511 nm,537,"CNc1cc2c(cc1F)C1(OC(=O)c3ccccc31)c1cc(F)c(NC)cc1O2 [Compound 23, 2,7-Difluoro-N,N′-dimethylrhodamine]",Mitochondrial stain visible. Bright,Structures stained in living cells ([3]; 50 μg dye/ml): Dim cytoplasmatic stain with dots
490 nm,514 nm,0.97,4.1,32000,502 nm,517,"5′ (6′)-Carboxy-2,7-difluoro-4,5-disulforhodamine [Compound 13]",Nearly no stain visible.,Structures stained in living cells ([3]; 50 μg dye/ml): Dim cytoplasmatic stain with dots
"515^a, 515^b nm",543 nm,0.86,4.1,56000,"515^a, 515^b nm",538,"5′(6′)-Carboxy-2,7-difluoro-N,N′-dimethylrhodamine [Compound 24]",Cellular stain visible; bright,
525 nm,554 nm,,,,,589,"2,7-Difluoro-5′(6′)-methoxycarbonyl-N,N,N′,N′-tetramethyl-rhodamine [Compound 28]",Red cytoplasmatic and mitochondrial,"ABSORPTION λMAX [2, 4]: 558 nm; bathochromic shift in absorption maximum [2, 7]: 23 nm; bathochromic shift in emission maximum [2, 7]: 35 nm; ABSORPTION ε ([2]; aqueous buffer at pH 7): 31000 M⁻¹ cm⁻¹"
494 nm,521 nm,1.00,3.8,41000,500 nm,519,"O=C1OC2(c3cc(F)c(NCC(F)(F)F)cc3Oc3cc(NCC(F)(F)F)c(F)cc32)c2ccccc21 [Compound 18, 2,7-Difluoro-N,N′-bis(2,2,2-trifluoroethyl)rhodamine]",,"ABSORPTION λMAX [2, 5]: (292)^2b nm; Structures stained in living cells ([3]; 50 μg dye/ml): Dim cytoplasmatic stain with bright"
496 nm,522 nm,0.92,4.0,50000,498 nm,523,"5′(6′)-Carboxy-2,7-difluororhodamine [Compound 11]",Dye exclusion! No dye within cell,
